{"source": "patent US20090018146A1", "about": "“Combination Therapy with Triterpenoid Compounds and Proteasome Inhibitors” (Research Development Corporation, priority 2005, published 2009)", "assay_type_in_all_cases": "cell-based, human", "key": {"Hsp70 [1]": {"tested_on": "Hsp70", "assay": "Western blot of Hsp70 in leukemic/lymphoma cell-lines", "details": "Jurkat, U937, MJ-1, and HH cells, 24 hours post-treatment", "procedure": "Human Jurkat T cell leukemia, monocytic U937 cells, and cutaneous T-cell lymphoma (CTCL) cell lines MJ (G11) and HH were obtained from American Type Culture Collection (Rockville, Md.) and grown in RPMI 1640 medium supplemented with 10% FBS and 2 mM glutamine.\n(§1) Jurkat T cells (2 μg/ml=1 μM), U-937 (4 μg/ml), MJ (5 μg/ml), and HH cells (2.5 μg/ml) were treated for 0-24 hours with the indicated concentrations of avicin D. PBLs from the patients or normal blood were treated with 5 μg/ml of avicin D for 24 hours.\nAt the end of treatments, cells were harvested, washed with sterile ice-cold PBS and cytoplasmic extracts (CE) were prepared by lysing the cells in CE buffer containing 10 mM Hepes-Cl pH 7.5, 10 mM KCl, 0.1 mM EDTA, 0.1 mM EGTA, 0.3% NP40, and a protease inhibitor cocktail (Sigma). After centrifugation and separating the supernatant (CE proteins), the pellet was resuspended in a buffer containing 20 mM Hepes-Cl, 400 mM NaCl, 1 mM EDTA, 1 mM EGTA, and protease inhibitor cocktail (Sigma). […]\n(§2) SDS-PAGE and immunoblot procedures were essentially performed as described (Sambrook, 1989). […] Protein bands were detected using the ECL chemiluminescence kit from Amersham as per the manufacturer's protocol.\n(§3) Quantitation of proteins (western) and transcripts (RT-PCR) was performed using the NIH 1.61 image software."}, "Hsp90": {"tested_on": "Hsp90", "assay": "Western blot of Hsp90 protein in avicin D treated Jurkat cells", "details": "avicin D 1 μM, within one hour up to 4 hours, western blot vs untreated", "procedure": "as §1\n(§4) At the end of treatments, cells were harvested, washed with sterile ice-cold PBS and cytoplasmic extracts (CE) were prepared by lysing the cells in CE buffer containing 10 mM Hepes-Cl pH 7.5, 10 mM KCl, 0.1 mM EDTA, 0.1 mM EGTA, 0.3% NP40, and a protease inhibitor cocktail (Sigma). After centrifugation and separating the supernatant (CE proteins), the pellet was resuspended in a buffer containing 20 mM Hepes-Cl, 400 mM NaCl, 1 mM EDTA, 1 mM EGTA, and protease inhibitor cocktail (Sigma). The nuclear protein extraction proceeded for 30 min. on ice followed by centrifugation at 14,000 rpm for 5 min at 4° C. The clear supernatant containing nuclear proteins (NE) was collected, glycerol (10%) was added, and proteins stored at −80° C. until use.\nas §2, §3"}, "Hsp90β transcript": {"tested_on": "Hsp90β transcript", "assay": "One-step RT-PCR of Hsp90β transcript in Jurkat cells", "details": "as early as 30 minutes", "procedure": "(§5) Total RNA purified using Trizol method (Invitrogen) was subjected to DNAseI (RNAase free, Sigma Chemical Co.) treatment to remove any residual DNA, followed by heat inactivation and addition of 1 mM EDTA. Absence of genomic DNA was confirmed by performing PCR using Taq DNA polymerase. About 50-100 ng of purified total RNA was used in a one-step RT-PCR reaction kit from Invitrogen in a Techne Genius machine. The samples were separated on 0.8% agarose-TBE gels and viewed by staining with ethidium bromide.\nas §3"}, "Hsp90 transcript": {"tested_on": "Hsp90 transcript", "assay": "Northern blot of Hsp90 transcript in Jurkat cells", "excerpt": "(§6) Total RNA from the control and avicin treated Jurkat T cells was made using Trizol (Invitrogen). Equal amounts of RNA were separated on form amide gels and transferred to nylon membranes (Hybond N+, Amersham) and UV cross-linked using UV Stratalinker (Stratagene). Staining the membranes with 0.03% methylene blue solution in 0.3% sodium acetate, pH 5.2, monitored equal loading. The DNA probes for Hsp70 and Hsp90 were purchased from StressGen as pUC plasmids and used according to the manufacturer's protocol. The DNA fragments were radiolabeled using a Nick Translation kit from Gibco BRL and [^32P] dCTP (Amersham). The membranes were exposed for autoradiography after hybridization using ExpressHyb (Clontech) solution at 58° C. for 1 hour and 5 washes, each of 20 minutes, with 5× SSC containing 0.1% SDS at 50° C."}, "Hsp27": {"tested_on": "Hsp27", "assay": "Western blot of Hsp27 protein in avicin D treated Jurkat cells", "details": "avicin D 1 μM, 2-4 hours", "procedure": "as §1, §4, §2, §3"}, "his-ub-Hsp70": {"tested_on": "his-ub-Hsp70", "assay": "In vivo ubiquitination of Hsp70 in his-ub transfected Jurkat cells", "details": "his-ub transfected Jurkat cells, avicin D 1 μM, 2 and 4 hours, p<0.05", "procedure": "Jurkat T-cells were transfected with a plasmid pDG268 that expresses a fusion protein of histidine-tagged human ubiquitin and enhanced GFP. Transfection was performed using μm ax a Biosystems kit and their protocol. After 24 hours of transfection, cells were harvested, resuspended at a density of 10^6 cells/ml before treatment with lactacystin or avicin D.\nJurkat T cells transfected with the his-ub plasmid construct were treated with lactacystin (10 μM) or with avicin D (1 μM) for 4 hours. Cells were harvested and CE prepared as described above. […] The affinity purified histidine-tagged proteins were separated on SDS-PAGE and analyzed on western blots for ub-Hsp70 proteins."}, "Hsp70 [2]": {"tested_on": "Hsp70", "assay": "Western blot of Hsp70 in normal PBL", "details": "PBL from a normal blood sample, 5 μg/ml, 24 hours", "procedure": "as §1, §4, §2"}, "XIAP": {"tested_on": "XIAP", "assay": "Western blot of XIAP in normal PBL", "details": "PBL from a normal blood sample, 5 μg/ml, 24 hours", "procedure": "as §1, §4, §2"}, "Hsp70 [3]": {"tested_on": "Hsp70", "assay": "Western blot of Hsp70 protein in avicin D treated Jurkat cells", "details": "avicin D 1 μM, within one hour up to 4 hours, western blot vs untreated", "procedure": "as §1, §4\nSDS-PAGE and immunoblot procedures were essentially performed as described (Sambrook, 1989). Briefly, cytoplasmic and nuclear proteins were resolved on SDS-PAGE, blotted on PVDF membranes (BioRad) and probed with various antibodies followed with anti-rabbit, anti-mouse antibody conjugated to horseradish peroxidase (HRP) from BioRad or HRP conjugated anti-goat antibody from Santa Cruz Biotechnology, corresponding to the primary antibody. Protein bands were detected using the ECL chemiluminescence kit from Amersham as per the manufacturer's protocol.\nas §3"}, "caspase 9": {"tested_on": "caspase 9", "assay": "Western blot of caspase 9 cleavage in Jurkat cells", "details": "2 hours of treatment", "procedure": "as §1, §4, §2"}, "Hsp70α transcript": {"tested_on": "Hsp70α transcript", "assay": "One-step RT-PCR of Hsp70α transcript in Jurkat cells", "details": "as early as 30 minutes", "procedure": "as §5, §3"}, "[4]": {"tested_on": "Hsc70, Hsp60, grp75, calnexin", "assay": "Western blot of other chaperone proteins in avicin D treated Jurkat cells", "details": "avicin D 1 μM, up to 4 hours", "procedure": "as §1, §4, §2, §3"}, "Hsp70 transcript": {"tested_on": "Hsp70 transcript", "assay": "Northern blot of Hsp70 transcript in Jurkat cells", "excerpt": "as §6"}}}
{"smiles": "C=C[C@](C)(O)CC/C=C(\\CO)C(=O)O[C@H]1[C@H](O)[C@@H](O)[C@H](O[C@@](C)(C=C)CC/C=C(\\CO)C(=O)O[C@H]2C[C@]3(C(=O)O[C@@H]4O[C@H](CO)[C@@H](O)[C@H](O)[C@H]4O[C@@H]4O[C@@H](C)[C@H](O[C@@H]5O[C@@H](CO)[C@H](O)[C@H]5O)[C@@H](O[C@@H]5O[C@H](CO)[C@@H](O)[C@H](O)[C@H]5O)[C@H]4O)[C@H](O)C[C@]4(C)C(=CC[C@@H]5[C@@]6(C)CC[C@H](O[C@@H]7O[C@H](CO[C@@H]8O[C@H](C)[C@H](O)[C@H](O)[C@H]8O[C@@H]8OC[C@@H](O)[C@H](O)[C@H]8O)[C@@H](O)[C@H](O)[C@H]7NC(C)=O)C(C)(C)[C@@H]6CC[C@]54C)[C@@H]3CC2(C)C)O[C@@H]1C", "note": "[avicin D]", "values": [{"measurement": "Hsp70 protein level", "setting": "Hsp70 [1]", "value": "significant decrease"}, {"measurement": "protein levels of Hsp90", "setting": "Hsp90", "value": "significant decrease"}, {"measurement": "increase in the Hsp90β transcript (RT-PCR)", "setting": "Hsp90β transcript", "value": "~1.4", "unit": "fold"}, {"measurement": "increase in Hsp90 transcript (Northern blot)", "setting": "Hsp90 transcript", "value": "~2", "unit": "fold"}, {"measurement": "increase of Hsp27", "setting": "Hsp27", "value": 1.4, "unit": "fold"}, {"measurement": "decrease in the levels of his-ub-Hsp70 protein band", "setting": "his-ub-Hsp70", "value": 40, "unit": "%"}, {"measurement": "change in Hsp70 protein", "setting": "Hsp70 [2]", "value": "no significant change"}, {"measurement": "change in XIAP protein", "setting": "XIAP", "value": "no significant change"}, {"measurement": "protein levels of Hsp70", "setting": "Hsp70 [3]", "value": "significant decrease"}, {"measurement": "cleavage of caspase 9", "setting": "caspase 9", "value": "increased cleavage"}, {"measurement": "increase in the Hsp70α transcript (RT-PCR)", "setting": "Hsp70α transcript", "value": "~1.6", "unit": "fold"}, {"measurement": "expression of other chaperone proteins (Hsc70, Hsp60, grp75, calnexin)", "setting": "[4]", "value": "did not show any change"}, {"measurement": "increase in Hsp70 transcript (Northern blot)", "setting": "Hsp70 transcript", "value": "~1.4", "unit": "fold"}]}
